Here are results for 24 compounds from ChEMBL document CHEMBL5331130, “Analysis of Structure-Activity Relationships of Novel Inhibitors of the Macrophage Infectivity Potentiator (Mip) Proteins of Neisseria meningitidis, Neisseria gonorrhoeae, and Burkholderia pseudomallei” (J Med Chem, 2023).

Active and inactive are the calls of the source. The rule behind the calls is not given here.

In assay [1] the test system is Burkholderia pseudomallei. The experiment in a line: Antimicrobial activity against Burkholderia pseudomallei K96243 infected in mouse RAW264.7 cells assessed as reduction in bacteria-induced cytotoxicity at 50 uM after 24 hrs by lactate dehydrogenase release assay relative to control. It counts as functional. Details: scale not given: the % may be the effect or the level left.

The test system of assay [2] is Neisseria meningitidis. The experiment in a line: Inhibition of Neisseria meningitidis Mip PPIase activity assessed as remaining activity using Suc-ALPF-pNA substrate measured at 400 nM by protease coupled assay relative to control.
Assay [3] in a line: Binding affinity to Burkholderia pseudomallei Mip measured after 1 hr by fluorescence polarization assay. (In general: Fluorescence polarisation rises when a labelled molecule tumbles more slowly, as on binding a larger partner.)
The subject of assay [4] is Neisseria meningitidis. Briefly: Antimicrobial activity against Neisseria meningitidis infected in mouse RAW264.7 cells assessed as reduction in bacteria-induced cytotoxicity at 50 uM after 24 hrs by lactate dehydrogenase release assay relative to control. Format: functional. Further details: scale not given: the % may be the effect or the level left.
For assay [5], the system named is Neisseria meningitidis. Briefly: Inhibition of Neisseria meningitidis Mip NEIS0004 assessed as remaining activity using Suc-ALPF-pNA substrate measured at 400 nM by protease coupled assay relative to control.
In assay [6] the test system is Burkholderia pseudomallei. The experiment in a line: Inhibition of Burkholderia pseudomallei Mip PPIase activity assessed as remaining activity using Suc-ALPF-pNA substrate measured at 400 nM by protease coupled assay relative to control.
Assay [7] has as its system Neisseria gonorrhoeae. The experiment in a line: Antimicrobial activity against Neisseria gonorrhoeae infected in mouse RAW264.7 cells assessed as reduction in bacteria-induced cytotoxicity at 50 uM after 24 hrs by lactate dehydrogenase release assay relative to control. It counts as functional. Details: scale not given: the % may be the effect or the level left.

For `O=C(NCc1cccnc1)[C@@H](NC(=O)[C@@H]1CCCCN1S(=O)(=O)Cc1ccc(F)cc1)c1ccc(F)cc1`, the Activity stood at 46.7% in assay [1]; 43.3% in assay [2]; 51.4% in assay [4]; 30.6% in assay [5]; 13.5% in assay [6]; 31.4% in assay [7]. Moreover, the inhibitory constant (Ki) in assay [3] (read-out: Ki) is 0.017 µM.

`O=C(NCc1cccnc1)[C@H](Cc1ccc(F)cc1)NC(=O)[C@@H]1CCCCN1S(=O)(=O)Cc1ccc(F)cc1`: the Activity was 68% in assay [1]; 11.5% in assay [2]; 47.9% in assay [4]; 37.2% in assay [5]; 12.5% in assay [6]; 50.8% in assay [7]. In assay [3] (read-out: Ki), the Ki worked out at 0.0188 µM.

Take `O=C(O[C@@H](Cc1ccccc1)C(=O)NCc1cccnc1)C1CCCCN1S(=O)(=O)Cc1ccccc1` (mixture of isomers): the Activity in assay [1] was 68.5%; in assay [2] it was 14%; in assay [4], 38.4%; in assay [5], 6.9%; in assay [6], 15.9%; in assay [7], 65.1%. Further, the inhibition constant Ki in assay [3] (read-out: Ki) is 0.0488 µM.

Regarding `O=C(NCc1cccnc1)[C@H](Cc1ccccc1)NC(=O)[C@@H]1CCCCN1S(=O)(=O)Cc1ccccc1`, the Activity was determined as 63.4% in assay [1]; 27.3% in assay [2]; 25% in assay [4]; 8.5% in assay [5]; 23.7% in assay [6]; 40.9% in assay [7]. For the same compound, the Ki in assay [3] (read-out: Ki) amounted to 0.0347 µM.

Regarding `CC(C)C[C@@H](OC(=O)[C@@H]1CCCCN1S(=O)(=O)Cc1ccccc1)C(=O)NCc1cccnc1`, the result in assay [2], in assay [5] and in assay [6] was inactive. Further, the Ki in assay [3] (read-out: Ki) was determined as 2.52 µM.

Regarding `O=C(O[C@H](Cc1ccccc1)C(=O)NCc1cccnc1)[C@H]1CCCCN1S(=O)(=O)c1ccccc1`, the Activity in assay [1] was found to be 74.3%; in assay [2] it was 51.3%; in assay [4], 21%; in assay [5], 108%; in assay [6], 155%; in assay [7] it was 58.6%. Besides, in assay [3], the Ki result was “Not Active”.

For `COCCOc1cc(OCCOC)cc(C(=O)NCCOC(=O)[C@@H]2CCCCN2S(=O)(=O)Cc2ccccc2)c1`, the Activity stood at 71% in assay [1]; 85% in assay [2]; 19.6% in assay [4]; 88.9% in assay [5]; 52.3% in assay [6]; 21.5% in assay [7]. In assay [3] (read-out: Ki), the inhibition constant Ki was determined as 1.06 µM.

On to `O=C(NCc1cccnc1)[C@H](Cc1ccccc1)OC(=O)[C@@H]1CCCCN1S(=O)(=O)c1ccccc1`, for which the Activity in assay [1] came to 72.5%; in assay [2], 10%; in assay [4] it was 41.5%; in assay [5], 6.7%; in assay [6], 7%; in assay [7] it was 64.6%. Also, the Ki in assay [3] (read-out: Ki) was determined as 0.122 µM.

As to `CC[C@H](C)[C@H](OC(=O)C1CCCCN1S(=O)(=O)Cc1ccccc1)C(=O)NCc1cccnc1` (mixture of isomers), the Activity was 94.3% in assay [1]; 73.3% in assay [2]; 58% in assay [4]; 9.4% in assay [5]; 16.8% in assay [6]; 35.4% in assay [7]. Besides, the Ki in assay [3] (read-out: Ki) was 3.13 µM.

`C#CCOc1ccc(C[C@H](NC(=O)[C@@H]2CCCCN2S(=O)(=O)Cc2ccc(F)cc2)C(=O)NCc2cccnc2)cc1`: the Activity in assay [1] came to 55.4%; in assay [2], 12.3%; in assay [4], 45.7%; in assay [5] it was 4.9%; in assay [6], 4.4%; in assay [7] it was 35.2%. The Ki in assay [3] (read-out: Ki) stood at 0.0343 µM.

In the case of `O=C(NCc1cccnc1)[C@@H](NC(=O)[C@@H]1CCCCN1S(=O)(=O)Cc1ccccc1)c1ccc(F)cc1`, the Activity in assay [1] was 78.5%; in assay [2], 63.5%; in assay [4], 22.6%; in assay [5], 27.2%; in assay [6], 11.3%; in assay [7] it was 28%. Moreover, the Ki in assay [3] (read-out: Ki) is 0.0732 µM.

As for `O=C(NCCOC(=O)[C@@H]1CCCCN1S(=O)(=O)Cc1ccccc1)c1cccnc1`, the Activity amounted to 68.9% in assay [1]; 52.2% in assay [2]; 41.1% in assay [4]; 61.9% in assay [5]; 50.3% in assay [6]; 27.1% in assay [7]. Moreover, the inhibition constant Ki in assay [3] (read-out: Ki) worked out at 3.96 µM.

For `CC(C)[C@H](OC(=O)C1CCCCN1S(=O)(=O)Cc1ccccc1)C(=O)NCc1cccnc1` (mixture of isomers), the Activity in assay [1] is 96.8%; in assay [2], 25.2%; in assay [4], 52.5%; in assay [5] it was 10.9%; in assay [6], 13.9%; in assay [7], 65.1%. The inhibition constant (Ki) in assay [3] (read-out: Ki) was 1.08 µM.

As to `C=CCOC(=O)[C@H](Cc1ccc(F)cc1)NC(=O)[C@@H]1CCCCN1S(=O)(=O)Cc1ccc(F)cc1`, the result in assay [2], in assay [5] and in assay [6] was inactive. Further, in assay [3], the Ki result was “Not Active”.

With `CC(C)C[C@H](OC(=O)[C@@H]1CCCCN1S(=O)(=O)Cc1ccccc1)C(=O)NCc1cccnc1`, the Activity in assay [1] is 87.8%; in assay [2], 35.6%; in assay [4] it was 13%; in assay [5] it was 3.8%; in assay [6] it was 4.8%; in assay [7], 19.1%. Moreover, the Ki in assay [3] (read-out: Ki) turned out to be 0.0605 µM.

With `O=C(NCc1cccnc1)[C@@H](Cc1ccccc1)NC(=O)[C@@H]1CCCCN1S(=O)(=O)Cc1ccccc1`, the Activity in assay [1] turned out to be 30.4%; in assay [2], 87.9%; in assay [4], 60.8%; in assay [5] it was 45.4%; in assay [6], 21.5%; in assay [7], 70.6%. For the same compound, in assay [3] (read-out: Ki), the Ki was determined as 0.626 µM.

Take `O=C(NCc1cccnc1)[C@@H](CCc1ccccc1)NC(=O)[C@@H]1CCCCN1S(=O)(=O)Cc1ccccc1`: the Activity was 88.7% in assay [1]; 83.7% in assay [2]; 69.9% in assay [4]; 39.9% in assay [5]; 23.4% in assay [6]; 41.9% in assay [7]. Also, in assay [3] (read-out: Ki), the inhibition constant Ki came to 0.32 µM.

Turning to `O=C(NCc1cccnc1)[C@H](Cc1ccccc1)OC(=O)[C@H]1CCCCN1S(=O)(=O)c1ccccc1`, the Activity in assay [1] turned out to be 82.7%; in assay [2], 27.2%; in assay [4] it was 35.2%; in assay [5], 122%; in assay [6], 147%; in assay [7], 68.4%. Also, in assay [3] (read-out: Ki), the Ki was 42.4 µM.

For `O=C(NCc1cccnc1)C(CCc1ccccc1)COC(=O)[C@@H]1CCCCN1S(=O)(=O)Cc1ccccc1` (mixture of isomers), the Activity in assay [1] turned out to be 93.4%; in assay [2] it was 47%; in assay [4], 16.4%; in assay [5] it was 8.4%; in assay [6] it was 28.7%; in assay [7], 63.5%. In addition, in assay [3] (read-out: Ki), the inhibitory constant (Ki) came to 0.207 µM.

In the case of `O=C(NCc1ccc[n+]([O-])c1)[C@H](Cc1ccc(F)cc1)NC(=O)[C@@H]1CCCCN1S(=O)(=O)Cc1ccc(F)cc1`, the Activity in assay [1] was 51.7%; in assay [2] it was 49.4%; in assay [4] it was 52.8%; in assay [5] it was 24%; in assay [6] it was 40.9%; in assay [7], 44.2%. Further, the inhibitory constant (Ki) in assay [3] (read-out: Ki) was found to be 1.31 µM.

Take `O=C(N[C@@H](Cc1ccccc1)C(=O)NCc1ccc[n+]([O-])c1)C1CCCCN1S(=O)(=O)Cc1ccccc1` (mixture of isomers): the Activity turned out to be 46.2% in assay [1]; 66.7% in assay [2]; 76% in assay [4]; 45.5% in assay [5]; 51.9% in assay [6]; 45.4% in assay [7]. Further, the Ki in assay [3] (read-out: Ki) came out at 4.45 µM.

As for `CC(C)C[C@H](NC(=O)[C@@H]1CCCCN1S(=O)(=O)Cc1ccc(F)cc1)C(=O)NCc1ccc[n+]([O-])c1`, the Activity in assay [1] was found to be 61.5%; in assay [2], 44.4%; in assay [4] it was 71.3%; in assay [5], 23.8%; in assay [6] it was 21%; in assay [7] it was 56.4%. Further, the inhibition constant Ki in assay [3] (read-out: Ki) came out at 0.148 µM.

Take `CC(C)C[C@H](OC(=O)C1CCCCN1S(=O)(=O)Cc1ccccc1)C(=O)NCc1cccnc1` (mixture of isomers): the Activity in assay [1] came out at 93.2%; in assay [2], 22.1%; in assay [4], 36.9%; in assay [5], 3.4%; in assay [6], 17.4%. In addition, the inhibition constant Ki in assay [3] (read-out: Ki) is 0.0158 µM.

Regarding `O=C(NCc1cccnc1)C(CCc1ccccc1)COC(=O)[C@H]1CCCCN1S(=O)(=O)Cc1ccccc1` (mixture of isomers), the Activity in assay [1] worked out at 95.7%; in assay [2], 93.7%; in assay [4], 21.2%; in assay [5], 119%; in assay [6], 140%. Also, in assay [3], the Ki result was “Not Active”.

The term Ki denotes the equilibrium dissociation constant of an inhibitor or competing ligand from its target.
